In patent US20120101093A1, “SUBSTITUTED IMIDAZO[1,2-A]PYRIDINE DERIVATIVES, PHARMACEUTICAL COMPOSITIONS, AND METHODS OF USE AS BETA-SECRETASE INHIBITORS” (HIGH POINT PHARMACEUTICALS, LLC, priority 2009, published 2012) one finds EC50 and IC50 data, which are given here for 25 compounds.

The test system of assay [1] is Aβ1-40 secreted from HEK293 cells stably expressing wildtype human APP695 protein (HEK-APPwt cells). As to the kind of experiment: Aβ Cell Based Assay (Aβ1-40 secretion, ELISA). As to conditions: Homo sapiens, HEK293, 6 h, 6 hours incubation, reduction of Aβ1-40 secretion. The procedure, abridged: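 Cells in DMEM with 2% FBS exposed to ten compound concentrations for 6 h at 37 °C. Secreted Aβ1-40 in supernatant quantified by sandwich ELISA (82E1 capture, TMB, OD450). EC50 from percent inhibition, DAPT defining 100% inhibition, non-linear fit.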
(In general: ELISA stands for enzyme-linked immunosorbent assay.)

Assay [2] has as its target T1, BACE-1 enzyme (Homo sapiens, UniProt P56817).
T1 construct: purchased R & D Systems 931AS
As to the kind of experiment: BACE Fluorescence Resonance Energy Transfer (FRET) Assay. It is filed as biochemical. As to conditions: pH 4-4.5, 30 min pre-incubation, about 1.5 hours reaction. The procedure, abridged:
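Fluorescence (ex 540, em 585 nm) after ~1.5 h room-temperature cleavage of a quenched rhodamine peptide tracks BACE-1 activity. Enzyme and compound first sit 30 min in pH 4-4.5 acetate buffer with CHAPS, Triton X-100, EDTA, 7.5% DMSO. Values given as IC50 or % inhibition.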

T1 sequence (P56817 46-457 limits assumed): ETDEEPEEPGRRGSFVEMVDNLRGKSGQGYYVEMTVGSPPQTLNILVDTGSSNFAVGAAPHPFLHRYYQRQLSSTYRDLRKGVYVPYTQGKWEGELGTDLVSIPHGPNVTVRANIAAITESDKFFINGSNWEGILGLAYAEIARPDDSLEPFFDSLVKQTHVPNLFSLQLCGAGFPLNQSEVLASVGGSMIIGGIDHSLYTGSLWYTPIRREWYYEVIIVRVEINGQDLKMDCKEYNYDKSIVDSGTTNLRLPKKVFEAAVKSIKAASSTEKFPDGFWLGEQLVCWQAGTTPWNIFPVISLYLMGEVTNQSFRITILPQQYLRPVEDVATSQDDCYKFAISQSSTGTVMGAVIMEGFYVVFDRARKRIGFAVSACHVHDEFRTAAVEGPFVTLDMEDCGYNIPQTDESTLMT

By EC50 is commonly meant the concentration that produces a half-maximal response. A high value points to a less potent agent. One may read the IC50 as the concentration at which inhibition is half-maximal. Read a low IC50 as higher potency. On to `CCOc1ccc(-c2ccc3[nH]c(NC(=O)c4cn5c(C)cccc5n4)nc3c2)cc1Cl` [Example 106, 5-Methyl-imidazo[1,2-a]pyridine-2-carboxylic acid [5-(3-chloro-4-ethoxy-phenyl)-1H-benzoimidazol-2-yl]-amide], for which the EC50 in assay [1] was determined as 0.93 µM. The same compound returned an IC50 in assay [2] of 0.8 µM.
In the same order, the values of `CCOc1ccc(-c2ccc3[nH]c(NC(=O)c4cn5c(C)cccc5n4)nc3c2)cc1C` [Example 107, 5-Methyl-imidazo[1,2-a]pyridine-2-carboxylic acid [5-(4-ethoxy-3-methyl-phenyl)-1H-benzoimidazol-2-yl]-amide] are 2.95 µM and 0.84 µM.
On to `Cc1cccc2nc(C(=O)Nc3nc4cc(-c5cccc(C(F)(F)F)c5O)ccc4[nH]3)cn12` [Example 109, 5-Methyl-imidazo[1,2-a]pyridine-2-carboxylic acid [5-(2-hydroxy-3-trifluoromethyl-phenyl)-1H-benzoimidazol-2-yl]-amide], for which the EC50 in assay [1] was 4.85 µM. In addition, it took 0.87 µM to reach half-maximal inhibition in assay [2] (IC50).
`COc1c(-c2ccc3[nH]c(NC(=O)c4cn5c(C)cccc5n4)nc3c2)cccc1C(F)(F)F` [Example 110, 5-Methyl-imidazo[1,2-a]pyridine-2-carboxylic acid [5-(2-methoxy-3-trifluoromethyl-phenyl)-1H-benzoimidazol-2-yl]-amide]: in assay [1], the EC50 is 0.75 µM. In assay [2], this compound displayed an IC50 of 0.4 µM.
Consider `O=C(Nc1nc2cc(-c3cccc(C(F)(F)F)c3)ccc2[nH]1)c1cn2cc(F)ccc2n1` [Example 112, 6-Fluoro-imidazo[1,2-a]pyridine-2-carboxylic acid [5-(3-trifluoromethyl-phenyl)-1H-benzoimidazol-2-yl]-amide], for which a half-maximal effect in assay [1] (EC50) was put at 1.94 µM. Moreover, the IC50 in assay [2] was determined as 0.43 µM.
`O=C(Nc1nc2cc(-c3cccc(C(F)(F)F)c3)ccc2[nH]1)c1cn2ccccc2n1` [Example 115, Imidazo[1,2-a]pyridine-2-carboxylic acid [5-(3-trifluoromethyl-phenyl)-1H-benzoimidazol-2-yl]-amide] yielded an EC50 in assay [1] of 1.43 µM. The compound further returned an IC50 in assay [2] of 0.37 µM.
As to `O=C(Nc1nc2cc(-c3cccc(OC(F)(F)F)c3)ccc2[nH]1)c1cn2ccccc2n1` [Example 117, Imidazo[1,2-a]pyridine-2-carboxylic acid [5-(3-trifluoromethoxy-phenyl)-1H-benzoimidazol-2-yl]-amide], the EC50 in assay [1] is 3.67 µM. Besides, the IC50 in assay [2] amounted to 0.54 µM.
`Cc1cccc2nc(C(=O)Nc3nc4cc(C5CCC(C)CC5)ccc4[nH]3)cn12` (centres unmarked) [Example 119, 5-Methyl-imidazo[1,2-a]pyridine-2-carboxylic acid [5-(4-methyl-cyclohexyl)-1H-benzoimidazol-2-yl]-amide] gave an EC50 in assay [1] of 1.82 µM. The compound further gave an IC50 in assay [2] of 0.27 µM.
In the same order, the values of `CN(C)c1cccc2nc(C(=O)Nc3nc4cc(-c5cccc(C(F)(F)F)c5)ccc4[nH]3)cn12` [Example 121, 5-Dimethylamino-imidazo[1,2-a]pyridine-2-carboxylic acid [5-(3-trifluoromethyl-phenyl)-1H-benzoimidazol-2-yl]-amide] are 0.37 µM and 0.67 µM.
The corresponding values for `COCCNc1cccc2nc(C(=O)Nc3nc4cc(-c5cccc(C(F)(F)F)c5)ccc4[nH]3)cn12` [Example 122, 5-(2-Methoxy-ethylamino)-imidazo[1,2-a]pyridine-2-carboxylic acid [5-(3-trifluoromethyl-phenyl)-1H-benzoimidazol-2-yl]-amide] are 1.5 µM and 0.54 µM.
Consider `O=C(Nc1nc2cc(-c3cccc(C(F)(F)F)c3)ccc2[nH]1)c1cn2c(N3CCOCC3)cccc2n1` [Example 123, 5-Morpholin-4-yl-imidazo[1,2-a]pyridine-2-carboxylic acid [5-(3-trifluoromethyl-phenyl)-1H-benzoimidazol-2-yl]-amide], for which, in assay [1], a half-maximal effect (EC50) was put at 1.11 µM. The compound also came in with a half-inhibitory concentration (IC50) in assay [2] of 2.11 µM.
In the same order, the values of `COc1ccc(-c2ccc3[nH]c(NC(=O)c4cn5c(N6CCN(C)CC6)cccc5n4)nc3c2)cc1C(F)(F)F` [Example 124, 5-(4-Methyl-piperazin-1-yl)-imidazo[1,2-a]pyridine-2-carboxylic acid [5-(4-methoxy-3-trifluoromethyl-phenyl)-1H-benzoimidazol-2-yl]-amide] are 3.13 µM and 0.55 µM.
`COc1cc(F)cn2cc(C(=O)Nc3nc4cc(-c5cc(F)cc(Cl)c5)ccc4[nH]3)nc12` [Example 126, 6-Fluoro-8-methoxy-imidazo[1,2-a]pyridine-2-carboxylic acid [5-(3-chloro-5-fluoro-phenyl)-1H-benzoimidazol-2-yl]-amide]: in assay [1], a half-maximal response (EC50) required 1.58 µM. This compound also yielded an IC50 in assay [2] of 0.22 µM.
In the same order, the values of `COc1cc(F)cn2cc(C(=O)Nc3nc4cc(-c5cccc(C(F)(F)F)c5)ccc4[nH]3)nc12` [Example 127, 6-Fluoro-8-methoxy-imidazo[1,2-a]pyridine-2-carboxylic acid [5-(3-trifluoromethyl-phenyl)-1H-benzoimidazol-2-yl]-amide] are 1.73 µM and 0.45 µM.
As to `O=C(Nc1nc2cc(-c3cccc(C(F)(F)F)c3)ccc2[nH]1)c1cn2c(CO)cccc2n1` [Example 161, 5-Hydroxymethyl-imidazo[1,2-a]pyridine-2-carboxylic acid [5-(3-trifluoromethyl-phenyl)-1H-benzoimidazol-2-yl]-amide], a half-maximal response in assay [1] (EC50) required 2.87 µM. In assay [2], this compound displayed an IC50 of 0.52 µM.
The corresponding values for `COCCNCc1cccc2nc(C(=O)Nc3nc4cc(-c5cccc(C(F)(F)F)c5)ccc4[nH]3)cn12` [Example 162, 5-[(2-Methoxy-ethylamino)-methyl]-imidazo[1,2-a]pyridine-2-carboxylic acid [5-(3-trifluoromethyl-phenyl)-1H-benzoimidazol-2-yl]-amide] are 0.98 µM and 0.23 µM.
In the same order, the values of `CN(C)Cc1cccc2nc(C(=O)Nc3nc4cc(-c5cccc(C(F)(F)F)c5)ccc4[nH]3)cn12` [Example 163, 5-Dimethylaminomethyl-imidazo[1,2-a]pyridine-2-carboxylic acid [5-(3-trifluoromethyl-phenyl)-1H-benzoimidazol-2-yl]-amide] are 1.11 µM and 0.36 µM.
`O=C(Nc1nc2cc(-c3cccc(C(F)(F)F)c3)ccc2[nH]1)c1cn2c(CN3CCOCC3)cccc2n1` [Example 165, 5-Morpholin-4-ylmethyl-imidazo[1,2-a]pyridine-2-carboxylic acid [5-(3-trifluoromethyl-phenyl)-1H-benzoimidazol-2-yl]-amide] registered an EC50 in assay [1] of 1.88 µM. The compound also came in with an IC50 in assay [2] of 0.42 µM.
In the same order, the values of `O=C(Nc1nc2cc(-c3cccc(C(F)(F)F)c3)ccc2[nH]1)c1cn2c(CN3CCC(O)CC3)cccc2n1` [Example 167, 5-(4-Hydroxy-piperidin-1-ylmethyl)-imidazo[1,2-a]pyridine-2-carboxylic acid [5-(3-trifluoromethyl-phenyl)-1H-benzoimidazol-2-yl]-amide] are 1.54 µM and 0.77 µM.
In the same order, the values of `O=C(Nc1nc2cc(-c3cccc(C(F)(F)F)c3)ccc2[nH]1)c1cn2c(CNCCN3CCOCC3)cccc2n1` [Example 169, 5-[(2-Morpholin-4-yl-ethylamino)-methyl]-imidazo[1,2-a]pyridine-2-carboxylic acid [5-(3-trifluoromethyl-phenyl)-1H-benzoimidazol-2-yl]-amide] are 5.23 µM and 0.42 µM.
For `CNCc1cccc2nc(C(=O)Nc3nc4cc(-c5cccc(C(F)(F)F)c5)ccc4[nH]3)cn12` [Example 170, 5-Methylaminomethyl-imidazo[1,2-a]pyridine-2-carboxylic acid [5-(3-trifluoromethyl-phenyl)-1H-benzoimidazol-2-yl]-amide], it took 2.48 µM to reach a half-maximal effect in assay [1] (EC50). The same compound came in with an IC50 in assay [2] of 0.47 µM.
Compound `O=C(Nc1nc2cc(-c3cccc(C(F)(F)F)c3)ccc2[nH]1)c1cn2c(CNCCCO)cccc2n1` [Example 171, 5-[(3-Hydroxy-propylamino)-methyl]-imidazo[1,2-a]pyridine-2-carboxylic acid [5-(3-trifluoromethyl-phenyl)-1H-benzoimidazol-2-yl]-amide] registered an EC50 in assay [1] of 4.26 µM. In assay [2], this compound had an IC50 of 0.71 µM.
In the same order, the values of `CC(C)(C)NCc1cccc2nc(C(=O)Nc3nc4cc(-c5cccc(C(F)(F)F)c5)ccc4[nH]3)cn12` [Example 172, 5-(tert-Butylamino-methyl)-imidazo[1,2-a]pyridine-2-carboxylic acid [5-(3-trifluoromethyl-phenyl)-1H-benzoimidazol-2-yl]-amide] are 1.92 µM and 0.31 µM.
In the same order, the values of `COCCCNCc1cccc2nc(C(=O)Nc3nc4cc(-c5cccc(C(F)(F)F)c5)ccc4[nH]3)cn12` [Example 174, 5-[(3-Methoxy-propylamino)-methyl]-imidazo[1,2-a]pyridine-2-carboxylic acid [5-(3-trifluoromethyl-phenyl)-1H-benzoimidazol-2-yl]-amide] are 4.4 µM and 0.93 µM.
The corresponding values for `CC(C)CNCc1ccc2nc(C(=O)Nc3nc4cc(-c5cccc(C(F)(F)F)c5)ccc4[nH]3)cn2c1` [Example 176, 6-(Isobutylamino-methyl)-imidazo[1,2-a]pyridine-2-carboxylic acid [5-(3-trifluoromethyl-phenyl)-1H-benzoimidazol-2-yl]-amide] are 3.91 µM and 0.37 µM.
